Source: patent publication US20050058600A1, “3,3'-Diindolylmethane antiandrogenic compositions” (priority 2003, published 2005)

Columns and labels:
GFP-AR = test: Fluorescence imaging of GFP-AR in transfected PC-3 cells; assay type: cell-based
Method: Transient Transfections with Reporters and Luciferase Assay. LNCaP and PC-3 cells were transfected, with some modifications, as previously described (20). For AR transactivation, cells were transfected with 0.1 μg of MMTV-Luc or pPSA-Luc per plate. Co-transfection experiments with pCMV-hAR or pCMV-GFP-rAR, 0.1 μg per plate was also used. For experiments involving GFP fluorescence imaging, treatments were not added until 30 h after transfection.
Fluorescence Imaging. PC-3 cells were plated on cover slips in six-well culture plates at 1.5×10^5 cells per well in 5% DCC-FBS-DMEM medium. Cells were co-transfected with pCMV-GFP-rAR and pPSA-Luc or MMTV-Luc as indicated above. Cover slips were placed on microscope slides and images were taken at 1000×.

mutant AR of LNCaP cells = target: T1, mutant AR of LNCaP cells (Homo sapiens, UniProt P10275, T878A); test: Competitive [3H]DHT binding assay, LNCaP cell extracts; settings: micromolar concentration range
T1 construct: 95 μL of either LNCaP cell extracts or recombinant AR protein; endogenous in cells; host or cells: LNCaP
T1 sequence (P10275 1-920 T878A): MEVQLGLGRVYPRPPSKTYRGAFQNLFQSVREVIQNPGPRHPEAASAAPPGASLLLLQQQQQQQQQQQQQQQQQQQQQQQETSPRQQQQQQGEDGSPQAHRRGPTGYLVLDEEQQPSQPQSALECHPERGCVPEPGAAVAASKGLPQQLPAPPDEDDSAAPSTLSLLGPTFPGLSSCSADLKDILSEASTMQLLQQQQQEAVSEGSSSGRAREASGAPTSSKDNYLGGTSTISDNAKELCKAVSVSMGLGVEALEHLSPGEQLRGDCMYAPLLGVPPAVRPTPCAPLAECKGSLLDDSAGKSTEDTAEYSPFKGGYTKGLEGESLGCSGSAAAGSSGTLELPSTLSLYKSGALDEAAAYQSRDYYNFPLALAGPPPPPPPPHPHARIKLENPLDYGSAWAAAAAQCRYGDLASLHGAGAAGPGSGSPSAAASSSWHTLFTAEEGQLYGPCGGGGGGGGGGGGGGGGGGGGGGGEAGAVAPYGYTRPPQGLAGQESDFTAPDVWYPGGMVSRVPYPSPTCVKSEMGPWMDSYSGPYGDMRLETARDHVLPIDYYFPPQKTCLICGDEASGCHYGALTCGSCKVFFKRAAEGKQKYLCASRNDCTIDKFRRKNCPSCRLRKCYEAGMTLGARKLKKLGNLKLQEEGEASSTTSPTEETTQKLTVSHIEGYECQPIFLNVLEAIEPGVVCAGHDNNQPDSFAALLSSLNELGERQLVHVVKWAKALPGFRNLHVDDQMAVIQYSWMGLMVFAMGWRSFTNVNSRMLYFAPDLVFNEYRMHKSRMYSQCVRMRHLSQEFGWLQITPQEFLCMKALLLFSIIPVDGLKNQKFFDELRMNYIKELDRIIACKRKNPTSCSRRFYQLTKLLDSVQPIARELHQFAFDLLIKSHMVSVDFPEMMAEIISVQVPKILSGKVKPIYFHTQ
Method: Hormone Binding Assay. LNCaP cells were grown in 5% DCC-FBS-DMEM medium supplemented with 4.0 g/L glucose and 3.7 g/L sodium bicarbonate and harvested in HBS containing 1.5 mM EDTA by scraping with a rubber policeman. The cells were placed on ice, collected by centrifugation, washed with ice-cold TKEG buffer (20 mM Tris-HCl pH 7.4, 50 mM KCl, 1 mM EDTA, 0.1 mM PMSF, and 10% glycerol) and resuspended in 250 μL/plate homogenization buffer (50 mM Tris-HCl pH 7.4, 1.5 mM EDTA, 10 mM sodium molybdate, 2.5 mM β-mercaptoethanol, 50 mM KCl, 0.1 mM PMSF, and 10% glycerol). Cells were homogenized using a Polytron apparatus at medium speed for 1 min on ice. The homogenates were centrifuged at 50,000 rpm in 4° C. for 60 min. The supernatant solution was divided into 1.0 mL aliquots, quickly frozen in a dry-ice/ethanol bath and stored at −80° C. Protein concentration was determined by the Bradford assay using bovine serum albumin as the standard. […] Competitive ligands were added as 1.0 μL of 100× solution in DMSO. After mixing, 95 μL of either LNCaP cell extracts or recombinant AR protein (PanVera, Madison, Wis.) was added and the solutions were vortexed and incubated at room temperature for 2-3 h. […]

PSA gene expression = test: Northern blot of endogenous PSA mRNA in LNCaP cells; assay type: cell-based, human
Method: RNA Extraction, mRNA Purification and Northern Hybridization. mRNA isolation and Northern blot analyses were conducted as described previously (20, 31). PSA cDNA and the cDNA probes were biotinylated using NEBlot Phototope kit (New England Biolabs, Beverly, Mass.), purified via precipitation with 3 M sodium acetate (pH 5.2) and washed with 70% ethanol. After hybridization with cDNA probes, the membrane was incubated with streptavidin then biotinylated with alkaline phosphatase followed by the Phototope-CDP-Star assay (New England Biolabs, Beverly, Mass.), and autoradiographed. The amount of mRNA was quantified by Gel Densitometer (Bio-Rad) and normalized with β-actin as an internal control.

PC-3 cells = test: PC-3 cell growth (cell counting); assay type: cell-based, human; settings: 96 h treatment; same concentrations (up to 50 μM)
Method: (§1) DIM was prepared from I3C as described (26-28) and recrystallized in toluene. The human prostate adenocarcinoma cell lines LNCaP-FGC and PC-3 were obtained from the American Type Culture Collection (Rockville, Md.). They were grown as adherent monolayers in 10% FBS-DMEM, supplemented with 4.0 g/L glucose and 3.7 g/L sodium bicarbonate in a humidified incubator at 37° C. and 5% CO2 and passaged at approximately 80% confluency. Cultures used in subsequent experiments were at less than 40 passages. Cells grown in stripped conditions were in 5% DCC-FBS-DMEM base supplemented with 4.0 g/L glucose, 3.7 g/L sodium bicarbonate, and 0.293 g/L L-Glutamine.
(§2) Cell Growth. Before the beginning of the treatments, cells were depleted of androgen for 4-7 d in medium composed of DMEM base without phenol-red and with 4.0 g/L glucose and 3.7 g/L sodium bicarbonate. During the depletion period, medium was changed every 48 h. Treatments were administered by addition of 1 μL of 1,000× solution in DMSO per mL of medium. Once the treatment period started, medium was changed daily to counter possible loss of readily metabolized compounds.
(§3) Cell Counting. Cells were harvested by trypsinization and resuspended in culture medium. Aliquots were diluted 50-fold in Isoton II (Coulter Corp., Miami, Fla.) and 200 μL duplicates were counted in a model Z1 Coulter particle counter and averaged.

LNCaP cells = test: LNCaP cell proliferation (cell counting); assay type: cell-based; settings: Homo sapiens, 96 h treatment, read-out: maximal inhibition of LNCaP cell proliferation
Method: as §1, §2, §3

AR = target: T2, AR (Homo sapiens, UniProt P10275, T878A); test: AR cytoplasmic/nuclear distribution by subcellular fractionation and Western blot in LNCaP cells; assay type: cell-based
T2 construct: 95 μL of either LNCaP cell extracts or recombinant AR protein; endogenous in cells; host or cells: LNCaP
T2 sequence (P10275 1-920 T878A): T1 sequence (P10275 1-920 T878A)
Method: Subcellular Fractionation. Three near confluent (80-90%) cultures of LNCaP cells in 100 mm Petri dishes were used for each treatment. Treatments were added as 1 μL of 1,000× solution in DMSO per ml of medium for the indicated time. After incubation with treatments at 37° C., cytosolic and nuclear proteins were prepared as described (32,33) with modifications. Briefly, cells were lysed in hypotonic buffer (10 mM Hepes, pH 7.5) and harvested in MDH buffer (3 mM MgCl2, 1 mM DTT, 25 mM Hepes, pH 7.5). After homogenization, supernatant was saved for cytosolic proteins and nuclear proteins were extracted from the pellets using MDHK buffer (3 mM MgCl2, 1 mM DTT, 0.1 M KCl, 25 mM Hepes, pH 7.5) followed by HDK buffer (25 mM Hepes, pH 7.5, 1 mM DTT, 0.4 M KCl). Cytosolic and nuclear extracts were subsequently analyzed by Western blot analysis.
Western Blot Analysis. Following the indicated treatment, Western immunoblot analyses of androgen receptor from LNCaP cells were performed as described previously (20). […] The amount of protein was quantified by Gel Densitometer (Bio-Rad) and normalized with P-actin when used as an internal control.

effect on nuclear translocation of the AR, compound alone (AR; absence of DHT): had no effect
block of DHT-induced AR translocation (AR; co-treatment with 1 nM DHT): up to 75%
Compound: c1ccc2c(Cc3c[nH]c4ccccc34)c[nH]c2c1 [DIM, 3,3′-diindolylmethane]
distribution of GFP-AR fluorescence (GFP-AR; DIM alone): predominantly cytoplasmic distribution
formation of AR foci in the nucleus (GFP-AR; DIM treatment with DHT): prevented the formation of AR foci
inhibition of AR translocation induced by DHT (GFP-AR; co-treatment with 50 μM DIM and 1 nM DHT): partially inhibited
competition with labeled DHT for binding to the AR (mutant AR of LNCaP cells): competes with labeled DHT for binding to the AR
inhibition of PSA mRNA induction by DHT (PSA gene expression; 24 h co-treatment with DIM): up to 80%
decrease in PSA mRNA levels (PSA gene expression; DIM treatment, concentration- and time-dependent): up to 70%
effects on the growth of PC-3 cells (PC-3 cells): no observable effects
inhibition at 50 µM (LNCaP cells): 70%
